Measurements as given in patent US20230082989A1, “DEVICES AND METHODS FOR TREATING CANCER AND CARDIAC WASTING” (Nazzano Devices Limited, priority 2020, published 2023).
Like-named read-outs stand apart in the source and are kept apart here. Where no end group is shown, it is not given here.

How the values were obtained:
[1] = system: advanced cancer patients; experiment: 24 h ECG recording (mean heart rate, SDNN, NSVT) in advanced cancer patients receiving heart failure drugs, case series; format: in vivo, human
Protocol: (§1) In some cases, SGLT2 inhibitors, Dapagliflozin or Empagliflozin can be used for treatment of type 2 diabetes, heart failure, or a combination thereof. Disclosed herein are methods comprising administering these drugs to advanced cancer patients to improve a heart muscle in these patients. We here describe 5 advanced cancer patients, who were treated with either an SGLT2 inhibitor, an ACE inhibitor, a beta-blocker or an Angiotensin receptor blocker, all of which are shown to be effective heart failure therapies.

[2] = system: advanced cancer patients; experiment: Echocardiogram (LVEF, LV mass) in advanced cancer patients receiving heart failure drugs, case series; format: in vivo, human
Protocol: as §1

[3] = system: advanced cancer patients; experiment: Hand grip strength, 4 meter walk and 6-minute walk test in advanced cancer patients receiving heart failure drugs, case series; format: in vivo, human
Protocol: as §1

[4] = system: advanced cancer patients; experiment: Self-rated health / EQ5D5L index in advanced cancer patients receiving heart failure drugs, case series; format: in vivo, human; settings: for Self-rated health: 1=very good, 5=very poor; for Symptom status, EQ5D5L Index: 1 best possible, 0 worst possible
Protocol: as §1

[5] = system: advanced cancer patients; experiment: Interpretation of case reports: protection from heart muscle wasting, NSVT and early death; format: in vivo, human
[6] = system: advanced cancer patients; experiment: Survival follow-up of advanced cancer patients receiving heart failure drugs, case series; format: in vivo, human
[7] = system: patients with advanced cancer; settings: cited from earlier work
[8] = Case 6: Colorectal Cancer UICC stage 4, Candesartan 16 mg and Dapagliflozin 10 mg with co-medication
[9] = Case 7: lymphoma Ann Arbor Stage 2A, Empagliflozin 10 mg with co-medication
[10] = Case 12: Multiple Myeloma stage 3, Spironolactone 25 mg, Candesartan 32 mg and Candesartan 8 mg listed, with co-medication
[11] = Case 13: Lung cancer UICC stage 4B, Spironolactone 25 mg and Candesartan 32 mg with co-medication
[12] = Case 14: Breast Cancer UICC stage 4, Spironolactone 25 mg with co-medication
[13] = Case 8: Pancreas Cancer UICC stage 4, Nebivolol 7.5 mg with co-medication
[14] = Case 9: Lung Cancer UICC stage 4, Candesartan 32 mg and Metoprolol 95 mg with co-medication
[15] = Case 10: Lymphoma Ann Arbor stage 4 E, Ramipril 2.5 mg with co-medication
[16] = Case 11: Lymphoma Ann Arbor stage 4 E, Ramipril 10 mg with co-medication
[17] = Case A: pancreatic cancer metastasized to liver, Gemcitabine, pre-study vs post-study
[18] = Case B: gastrointestinal cancer metastasized to liver, Capecitabine
[19] = Case C: advanced mesothelioma, FOLFIRI
[20] = Case D: head & neck cancer metastasized to lungs, Cetuximab, pre-study vs post-study

With `CCOc1ccc(Cc2cc([C@@H]3O[C@H](CO)[C@@H](O)[C@H](O)[C@H]3O)ccc2Cl)cc1` [Dapagliflozin] the “Heart rate variability SDNN (24 h ECG)” value [1, 8] was 160 ms, the “Mean heart rate (24 h ECG)” value [1, 8] was 70 beats per minute and the “LV mass (echocardiogram)” value [2, 8] was 247 gram. The “LVEF (echocardiogram)” value [2, 8] was 68%, the “Distance in 6-minute walk test” value [3, 8] was 504 meters and the Hand grip strength [3, 8] was 46 kg. It also gave a Self-rated health [4, 8] of 4.
With `OC[C@H]1O[C@@H](c2ccc(Cl)c(Cc3ccc(O[C@H]4CCOC4)cc3)c2)[C@H](O)[C@@H](O)[C@@H]1O` [Empagliflozin] the “Heart rate variability SDNN (24 h ECG)” value [1, 9] was 224 ms, the “Mean heart rate (24 h ECG)” value [1, 9] was 84 beats per minute and the “Non-sustained ventricular tachycardia (24 h ECG)” value [1, 9] was “no non-sustained ventricular tachycardia”. For the same compound, the “LV mass (echocardiogram)” value [2, 9] was 365 gram, the “LVEF (echocardiogram)” value [2, 9] was 64% and the “Interpretation of the case” value [5, 9] was “protected from heart muscle wasting, life-threatening non-sustained ventricular tachycardia and early death”. For the same compound, the Hand grip strength [3, 9] was 46, the “Time to walk 4 meters” value [3, 9] was 3.5 s and the Self-rated health [4, 9] was 2. The “Survival (still alive after)” value [6, 9] was over 324 days.
With `CC(=O)S[C@@H]1CC2=CC(=O)CC[C@]2(C)[C@H]2CC[C@@]3(C)[C@@H](CC[C@@]34CCC(=O)O4)[C@H]12` [Spironolactone] the “Heart rate variability SDNN (24 h ECG)” value [1, 10] was 112 ms, the “Mean heart rate (24 h ECG)” value [1, 10] was 69 beats per minute and the “Non-sustained ventricular tachycardia (24 h ECG)” value [1, 10] was “no non-sustained ventricular tachycardia”. The “Heart rate variability SDNN (24 h ECG)” value [1, 11] was 101 ms, the “Non-sustained ventricular tachycardia (24 h ECG)” value [1, 11] was “no non-sustained ventricular tachycardia” and the “Average heart rate (24 h ECG)” value [1, 12] was 85 bpm. The “Heart rate variability SDNN (24 h ECG)” value [1, 12] was 142 ms, the “Non-sustained ventricular tachycardia (24 h ECG)” value [1, 12] was “no non-sustained ventricular tachycardia” and the “LV mass (echocardiogram)” value [2, 11] was 148 gram. The “LVEF (echocardiogram)” value [2, 11] was 66%, the “LV mass (echocardiogram)” value [2, 12] was 233 gram and the “LVEF (echocardiogram)” value [2, 12] was 67%. For the same compound, the “Interpretation of the case” value [5, 11] was “protected from heart muscle wasting, life-threatening non-sustained ventricular tachycardia and early death”, the “Interpretation of the case” value [5, 12] was “protected from heart muscle wasting, life-threatening non-sustained ventricular tachycardia and early death” and the “Distance walked in 6 minutes” value [3, 10] was 527 meters. The “Hand grip muscle strength” value [3, 10] was 47 kg, the “Time to walk 4 meters” value [3, 10] was 2.5 s and the “Hand grip muscle strength” value [3, 11] was 40 kg. The “Hand grip muscle strength” value [3, 12] was 40 kg, the “Symptom status, EQ5D5L Index” value [4, 10] was 0.887 and the “Survival (still alive after)” value [6, 12] was over 235 days.
For `OC(CNCC(O)C1CCc2cc(F)ccc2O1)C1CCc2cc(F)ccc2O1` (stereo not shown) [Nebivolol], the “Heart rate variability SDNN (24 h ECG)” value [1, 13] was 124 ms, the “Mean heart rate (24 h ECG)” value [1, 13] was 62 beats per minute and the “Non-sustained ventricular tachycardia (24 h ECG)” value [1, 13] was “no non-sustained ventricular tachycardia”. For the same compound, the “LV mass (echocardiogram)” value [2, 13] was 236 gram, the “LVEF (echocardiogram)” value [2, 13] was 65% and the “Interpretation of the case” value [5, 13] was “protected from heart muscle wasting, life-threatening non-sustained ventricular tachycardia and early death”. For the same compound, the “Hand grip muscle strength” value [3, 13] was 27 kg, the “Time to walk 4 meters” value [3, 13] was 4.6 s and the Self-rated health [4, 13] was 3. For the same compound, the “Survival (still alive after)” value [6, 13] was over 337 days.
With `COCCc1ccc(OCC(O)CNC(C)C)cc1` (stereo not shown) [Metoprolol] the “Non-sustained ventricular tachycardia (24 h ECG)” value [1, 14] was “no non-sustained ventricular tachycardia”, the “LV mass (echocardiogram)” value [2, 14] was 326 gram and the “LVEF (echocardiogram)” value [2, 14] was 67%. The “Interpretation of the case” value [5, 14] was “protected from heart muscle wasting, life-threatening non-sustained ventricular tachycardia and early death”, the “Distance walked in 6 minutes” value [3, 14] was 440 meters and the “Hand grip muscle strength” value [3, 14] was 43 kg. The Self-rated health [4, 14] was 2.
In the case of `CCOC(=O)[C@H](CCc1ccccc1)N[C@@H](C)C(=O)N1[C@H](C(=O)O)C[C@@H]2CCC[C@@H]21` [Ramipril], the “Heart rate variability SDNN (24 h ECG)” value [1, 15] is reported as 95 ms, the “Mean heart rate (24 h ECG)” value [1, 15] is reported as 64 beats per minute and the “Non-sustained ventricular tachycardia (24 h ECG)” value [1, 15] is reported as “no non-sustained ventricular tachycardia”. The “Heart rate variability SDNN (24 h ECG)” value [1, 16] was 120 ms, the “Mean heart rate (24 h ECG)” value [1, 16] was 77 beats per minute and the “Non-sustained ventricular tachycardia (24 h ECG)” value [1, 16] was “no non-sustained ventricular tachycardia”. For the same compound, the “LV mass (echocardiogram)” value [2, 15] was 189 gram, the “LVEF (echocardiogram)” value [2, 15] was 63% and the “LV mass (echocardiogram)” value [2, 16] was 227 gram. The “LVEF (echocardiogram)” value [2, 16] was 67%, the “Interpretation of the case” value [5, 15] was “protected from heart muscle wasting, life-threatening non-sustained ventricular tachycardia and early death” and the “Interpretation of the case” value [5, 16] was “protected from heart muscle wasting, life-threatening non-sustained ventricular tachycardia and early death”. The “Distance walked in 6 minutes” value [3, 15] was 440 meters, the “Hand grip muscle strength” value [3, 15] was 29 kg and the “Time to walk 4 meters” value [3, 15] was 3.5 s. The “Hand grip muscle strength” value [3, 16] was 47 kg, the Self-rated health [4, 15] was 3 and the “Symptom status, EQ5D5L Index” value [4, 16] was 0.999. For the same compound, the “Survival (still alive after)” value [6, 15] was over 458 days and the “Survival (still alive after)” value [6, 16] was over 666 days.
In the case of “Ghrelin (GSSFLSPEHQRVQQRKESKKPPAKLQPR; ends and bridges not checked; UniProt Q9UBU3 24-51, looked up) [a gut-derived 28-amino acid peptide hormone]”, the “Change in muscle mass” value [7, 17] is given as “no change”, the “Increase in muscle strength” value [7, 17] is given as 2% and the Increase in steps/day [7, 17] is given as 40%. For the same compound, the Adverse event [7, 18] was “hospitalized for atrial fibrillation, which was an AE deemed unrelated to ghrelin”, the “Patient comment about using ghrelin” value [7, 18] was “Feel more active” and the Adverse event [7, 19] was “increase in tumor pain, an AE deemed unrelated to ghrelin”. For the same compound, the “Patient opinion about using ghrelin” value [7, 19] was “This is the first therapy which improves my well-being”, the Survival [7, 19] was 62 days and the “Decrease in muscle mass” value ([7]; Case C: advanced mesothelioma, FOLFIRI, pre-study vs post-study) was 3%. The “Change in muscle mass” value [7, 20] was “no change”, the “Increase in muscle strength” value [7, 20] was 6% and the Increase in steps/day [7, 20] was 63%.
For `CCOc1nc2cccc(C(=O)O)c2n1Cc1ccc(-c2ccccc2-c2nnn[nH]2)cc1` [Candesartan], the “Heart rate variability SDNN (24 h ECG)” value [1, 8] was 160 ms, the “Mean heart rate (24 h ECG)” value [1, 8] was 70 beats per minute and the “Heart rate variability SDNN (24 h ECG)” value [1, 10] was 112 ms. The “Mean heart rate (24 h ECG)” value [1, 10] was 69 beats per minute, the “Heart rate variability SDNN (24 h ECG)” value [1, 11] was 101 ms and the “LV mass (echocardiogram)” value [2, 8] was 247 gram. For the same compound, the “LVEF (echocardiogram)” value [2, 8] was 68%, the “LV mass (echocardiogram)” value [2, 14] was 326 gram and the “LVEF (echocardiogram)” value [2, 14] was 67%. The “LV mass (echocardiogram)” value [2, 11] was 148 gram, the “LVEF (echocardiogram)” value [2, 11] was 66% and the “Distance in 6-minute walk test” value [3, 8] was 504 meters. For the same compound, the Hand grip strength [3, 8] was 46 kg, the “Distance walked in 6 minutes” value [3, 14] was 440 meters and the “Hand grip muscle strength” value [3, 14] was 43 kg. For the same compound, the “Distance walked in 6 minutes” value [3, 10] was 527 meters, the “Hand grip muscle strength” value [3, 10] was 47 kg and the “Time to walk 4 meters” value [3, 10] was 2.5 s. For the same compound, the “Hand grip muscle strength” value [3, 11] was 40 kg, the Self-rated health [4, 8] was 4 and the Self-rated health [4, 14] was 2. For the same compound, the “Symptom status, EQ5D5L Index” value [4, 10] was 0.887.
